Values joined by “and” are separate entries in the source; they are usually repeats but may differ in a detail not shown here. Equal entries are not always repeated. Where two headings read alike, the source gives them in different places.
Columns and labels:
[1] = tested on: Human PPARγ; conditions: cited from earlier work
[2] = tested on: PPARγ; conditions: cited from earlier work
[3] = tested on: PPARγ; parameters: method as in Filer et al. 2014; conditions: ref Filer et al. 2014, cited from earlier work; for AC50: PPARγ, NA = not active, read-out: NCGC Antag. AC50, 2014 Release
[4] = biological target: T1, GAL4-mPPARγ (Mus musculus, UniProt P37238); test: GAL4-mPPARγ activation, transient transfection luciferase reporter in COS7 cells; type: cell-based
T1 construct: expressed in transfected cells; host or cells: COS7
Experimental: (§1) pCMX-Gal4, pCMX-Gal4-mPPARγ, and pCMX-Gal4-hRXRα were previously described ([Grün et al. 2006]). Transient transfections were performed in COS7 cells as described ([Chamorro-García et al. 2012]). Briefly, COS7 cells were seeded at 15,000 cells per well in 96-well tissue culture plates in 10% calf bovine serum. The following day, cells were transfected in Opti-MEM at ~ 90% confluency. One microgram of CMX-GAL4 effector plasmid was co-transfected with 5 μg tk-(MH100)4-luciferase reporter and 5 μg of CMX-β-galactosidase transfection control plasmids in Opti-MEM® using Lipofectamine® 2000 reagent (Invitrogen™ Life Technologies, Carlsbad, CA, USA), following the manufacturer’s recommended protocol. All chemicals were solvated in dimethyl sulfoxide (DMSO). After overnight incubation, the medium was replaced with Dulbecco’s Modified Eagle Medium (DMEM; HyClone, Logan, UT, USA), 10% resin charcoal stripped fetal bovine serum (FBS) plus ligands at concentrations indicated in the figure legends for an additional 24 hr. DMSO concentration was maintained at 0.05% across all chemical treatments. Cells were lysed and assayed for luciferase and β-galactosidase activity as previously described ([Forman et al. 1995]). All transfections were performed in triplicate and reproduced in multiple experiments. Data are reported as fold induction or reduction over vehicle ([…]) controls ± SEM (standard error of the mean) using standard propagation of error ([Bevington and Robinson 2003]). […] The EC50, EC10, IC50, and IC10 values from NCGC and ToxCast™ are reported from gain AC50 and AC10 values in the ToxCast™ 2014 release ([Filer et al. 2014]).
(§2) Figure 1 ToxCast™ Chemical Activity on PPARγ. The ability of a graded dose series of ToxCast™ chemicals to (A) activate or (B) antagonize GAL4-mPPARγ was tested in transiently transfected COS7 cells. (A, B) Data points are averages of triplicate transfections (three biological replicates). […] Data are depicted as (A) fold induction or (B) reduction over vehicle (0.05% DMSO) controls ± SEM. (A) ToxCast™ chemicals were tested in 3-fold serial dilutions from 100 μM through 0.137 μM, with the final data point being 0.05% DMSO. Rosiglitazone serves as a positive control activator. (B) ToxCast™ chemicals were tested in 3-fold serial dilutions from 100 μM, in competition with 50 nM rosiglitazone (Rosi). […] (C) EC50, EC10, IC50, and IC10 values calculated from A and B are reported and compared to commercial assays (see Figure S1). Note: ATG, Attagene GAL-PPARγ activation assay; NCGC, GeneBLAzer® agonist (EC values) or antagonist (IC values) assays. Triphenyltin was previously published ([Kanayama et al. 2005]).
Figure 4 ToxPi Chemical Activity on PPARγ and RXRα. The ability of a graded dose series of ToxPi chemicals to activate (A) GAL4-mPPARγ or (B) GAL4-hRXRα was tested in transiently transfected COS7 cells. (A, B) Data points are averages of triplicate transfections (three biological replicates). […] ToxPi chemicals were tested in 3-fold serial dilutions from 100 μM through 0.137 μM, with the final data point being 0.05% DMSO. Data are depicted as fold induction over vehicle (0.05% DMSO) controls ± SEM. (A) Rosiglitazone serves as a positive control activator for GAL4-mPPARγ. (B) LG100268 (2-[1-(3,5,5,8,8-Pentamethyl-5,6,7,8-tetrahydro-2-naphthyl)cyclopropyl]pyridine-5-carboxylic acid) serves as a positive control activator for GAL4-hRXRα. (C) EC50 and EC10 values calculated from A and B are reported and compared to other assays (see Figure S1). ATG, Attagene GAL-PPARγ or GAL-RXRα activation assay; NCGC, GeneBLAzer® GAL-PPARγ or GAL-RXRα activation assays. Triphenyltin was previously published ([Kanayama et al. 2005]).

[5] = tested on: 3T3-L1 preadipocytes; test: 3T3-L1 adipogenesis assay (lipid accumulation, adipogenic gene expression); type: cell-based; conditions: 0.02-20 μM, 5 days after MDI induction
Experimental: 3T3-L1 cells (ATCC) were maintained in high-glucose DMEM supplemented with 10% fetal bovine serum, 2 mM L-glutamine, 50 IU/mL penicillin, and 50 μg/mL streptomycin. A total of 2 × 10^4 cells per well were seeded in 12-well plates. After 48 hr, cells were exposed to the adipogenic cocktail MDI (500 μM isobutylmethylxanthine, 0.25 nM dexamethasone and 5 μg/mL insulin), 8 μg/mL biotin and 8 μg/mL pantothenate for 2 days. Induction media was removed and cells were exposed to test chemicals during 5 days, replacing the media every 2 days. Rosiglitazone (ROSI) and tributyltin (TBT) were used as positive controls at 100 nM and 50 nM final concentrations, respectively. All ToxCast™ chemicals were tested at 0.02, 0.2, 2, and 20 μM, and DMSO concentration was maintained at 0.1% across all treatments. If the chemical was toxic at 20 μM, we repeated the experiment at 10 μM.
Cells were either fixed in 3.7% formaldehyde in phosphate-buffered saline (PBS) for 30 min at room temperature (RT) for lipid quantitation, or homogenized in TriPure (Roche, Mannheim, Germany) for gene expression analysis. For lipid quantitation, fixed cells were washed twice with PBS and maintained in PBS overnight at 4°C to release residual phenol red. Background of cells were measured prior to staining. Cells were stained with 1 μg/mL Nile red (CAS No. 7385-67-3) (to detect lipid accumulation) and 1 μg/mL Hoechst 33342 (ThermoFisher Scientific) (to detect nuclei as a surrogate for cell number) in PBS for 15 min in the dark at RT and washed twice with PBS. […] Background values of Hoechst and Nile red were subtracted from the RFUs after staining and the ratio RFUNile Red:RFUHoechst was calculated. Data are represented as mean ± SEM. Total RNA was isolated using TriPure (Roche) as recommended by the manufacturer. Reverse transcription and quantitative real-time RT-PCR (QPCR) were performed using Transcriptor RT and SYBR® Green Master Mix (Roche). cDNA was quantitated in a LightCycler® 480 System (Roche Diagnostics, Basel, Switzerland) using primer sets listed in Table S4. Each primer set amplified a single band as determined by gel electrophoresis and melting curve analysis. QPCR data were analyzed using the 2^ΔΔCt method ([Livak and Schmittgen 2001]) relative to ribosomal protein 36b4, normalizing to 0.1% DMSO vehicle. Error bars represent the SEM from four to six biological replicates calculated using standard propagation of error ([Bevington and Robinson 2003]).

[6] = tested on: PPARγ; conditions: ref Filer et al. 2014, cited from earlier work
[7] = biological target: T1, GAL4-mPPARγ; test: GAL4-mPPARγ antagonism in competition with 50 nM rosiglitazone, transiently transfected COS7 cells; type: cell-based
Experimental: as §1, §2

[8] = PPARγ direct binding, NA = not active, ref Filer et al. 2014, read-out: NVS Agonist AC50, 2014 Release
[9] = PPARγ, NA = not active, ref Filer et al. 2014, read-out: ATG Agonist AC50, 2014 Release
[10] = PPARγ, NA = not active, ref Knudsen et al. 2011, read-out: ATG Agonist AC50, 2011 Release
[11] = ToxCast 2014 release, ref Filer et al. 2014, read-out: Attagene AC50 (panel A, w/o Z-Score Correction ranking)
[12] = Cos-7 transient transfection, PPARγ or RXRα activation assays (Table 2)
[13] = PPARγ, NA = not active, read-out: NCGC Agonist AC50, 2014 Release
[14] = Cos-7 transient transfection, PPARγ activation or antagonism assays (Table 1, Table S6)

T1 sequence (P37238 with tags, fused parts or gaps limits assumed): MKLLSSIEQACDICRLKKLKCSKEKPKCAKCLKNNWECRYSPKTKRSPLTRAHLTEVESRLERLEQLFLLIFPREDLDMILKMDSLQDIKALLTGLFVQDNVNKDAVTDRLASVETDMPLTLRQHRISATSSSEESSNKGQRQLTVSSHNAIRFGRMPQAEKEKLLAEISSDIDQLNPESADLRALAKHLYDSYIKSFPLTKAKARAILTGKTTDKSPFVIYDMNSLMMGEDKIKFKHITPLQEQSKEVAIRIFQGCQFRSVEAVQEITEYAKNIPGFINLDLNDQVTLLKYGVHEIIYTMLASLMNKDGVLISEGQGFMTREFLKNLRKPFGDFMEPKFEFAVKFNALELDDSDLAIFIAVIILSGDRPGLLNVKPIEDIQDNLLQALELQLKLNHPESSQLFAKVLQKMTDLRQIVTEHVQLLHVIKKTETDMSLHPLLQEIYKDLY

## COc1ccc(C(=CC(=O)N2CCOCC2)c2ccc(Cl)cc2)cc1OC [Dimethomorph]
[1]; [8]
  AC50: 9.6 µM
[2]; [9]
  AC50: 9.4 µM and 10.1 µM
[2]; [10]
  AC50: 11 µM
[3]
  AC50: 32.3 µM
[4]
  Activation COS7 (result in words), ToxCast PPARγ list: Inactive

## CNC(=O)/C=C(\C)OP(=O)(OC)OC [Monocrotophos]
[5]
  Adipogenesis 3T3-L1 (result in words): Negative
[6]; ToxCast 2014 release, read-out: Tox21/NCGC AC50 (panel A)
  AC50: 67.5 µM
[1]; direct binding, ToxCast 2014 release, ref Filer et al. 2014, read-out: NovaScreen AC50 (panel A)
  AC50: 20.8 µM
[2]; [11]
  AC50: 2.2 µM
[4]; [12]
  Activation COS7 (result in words), ToxPi chemicals: Inactive

## CCc1ccc(C(=O)NN(C(=O)c2cc(C)cc(C)c2)C(C)(C)C)cc1 [Tebufenozide]
[2]; [9]
  AC50: 7.6 µM
[2]; [10]
  AC50: 6.3 µM
[3]
  AC50: 50.8 µM
[4]
  Activation COS7 (result in words), ToxCast PPARγ list: Inactive

## O=C(Nc1ccc([N+](=O)[O-])cc1Cl)c1cc(Cl)ccc1O [Niclosamide]
[6]; [13]
  AC50: 29.9 µM
[2]; [9]
  AC50: 0.56 µM
[2]; [10]
  AC50: 0.56 µM
[2]; [11]
  AC50: 0.6 µM
[3]
  AC50: 35.9 µM
[4]; [14]
  Activation COS7 (result in words), ToxCast PPARγ list: Inactive

## N#Cc1c(Cl)c(Cl)c(Cl)c(C#N)c1Cl [Chlorothalonil]
[6]; [13]
  AC50: 82.8 µM
[1]; [8]
  AC50: 0.46 µM
[1]; PPARγ direct binding, NA = not active, ref Knudsen et al. 2011, read-out: NVS Agonist AC50, 2011 Release
  AC50: 0.6 µM
[2]; PPARγ, NA = not active, ref Knudsen et al. 2011
  ATG Agonist AC50, 2011 Release: negative
[3]
  AC50: 0.9 µM
[4]
  Activation COS7 (result in words), ToxCast PPARγ list: Inactive

## COCC(C)N(C(=O)CCl)c1c(C)csc1C (stereo not shown) [Dimethenamid]
[2]; [9]
  AC50: 4.6 µM
[2]; [10]
  AC50: 5.6 µM
[3]
  AC50: 21.4 µM
[4]
  Activation COS7 (result in words), ToxCast PPARγ list: Inactive

## COC(=O)N(OC)c1ccccc1COc1ccn(-c2ccc(Cl)cc2)n1 [Pyraclostrobin]
[2]; [9]
  AC50: 0.61 µM
[2]; [10]
  AC50: 0.76 µM
[3]
  AC50: 0.7 µM
[4]
  Activation COS7 (result in words), ToxCast PPARγ list: Inactive

## CCCN(CCOc1c(Cl)cc(Cl)cc1Cl)C(=O)n1ccnc1 [Prochloraz]
[1]; [8]
  AC50: 27.5 µM
[2]; [10]
  AC50: 3.5 µM
[3]
  AC50: 81.5 µM
[4]; [14]
  Activation COS7 (result in words), ToxCast PPARγ list: Inactive

## Cc1ccn2nc(S(=O)(=O)Nc3c(F)cccc3F)nc2n1 [Flumetsulam]
[5]
  Adipogenesis 3T3-L1 (result in words): Negative
[4]; [12]
  Activation COS7 (result in words), ToxPi chemicals: Inactive

## COC(=O)N(C(=O)N1CO[C@@]2(C(=O)OC)Cc3cc(Cl)ccc3C2=N1)c1ccc(OC(F)(F)F)cc1 [Indoxacarb]
[6]; [13]
  AC50: 44.1 µM
[2]; [9]
  AC50: 6.1 µM
[2]; [10]
  AC50: 8.5 µM
[3]
  AC50: 10.7 µM
[4]
  Activation COS7 (result in words), ToxCast PPARγ list: Inactive

## CCOCN(C(=O)CCl)c1c(C)cccc1CC [Acetochlor]
[5]
  Adipogenesis 3T3-L1 (result in words): Negative
[2]; [9]
  AC50: 1.5 µM
[2]; [10]
  AC50: 1.7 µM
[3]; AC10, ToxCast 2014 release
  PPARγ antagonists: IC10, NCGC: 0.42 µM
[3]
  AC50: 4.5 µM
[3]; read-out: PPARγ antagonists: IC50, NCGC, gain AC50, ToxCast 2014 release
  IC50: 4.5 µM
[4]; COS7, 100 μM through 0.137 μM
  Activation of GAL4-PPARγ (text): did not activate PPARγ
[7]; Activation AC50 (PPARγ antagonists), Cos-7 transient transfection, competition with 50 nM rosiglitazone
  AC50: 46.7 µM
[7]; COS7, competition against 50 nM rosiglitazone
  Antagonism of PPARγ: weak antagonists
[7]; COS7, in competition with 50 nM rosiglitazone
  IC50: 46.7 µM
[7]; COS7, in competition with 50 nM rosiglitazone, computed from IC50
  PPARγ antagonists: IC10, Fig 1B: 9.54 µM
[7]; Cos-7 transient transfection, competition with 50 nM rosiglitazone
  Activation COS7 (result in words): PPARγ antagonist: PPARγ antagonist

## C/C(=N\C#N)N(C)Cc1ccc(Cl)nc1 [Acetamiprid]
[5]
  Adipogenesis 3T3-L1 (result in words): Positive
[5]; listed as acetamiprid
  Adipogenesis 3T3-L1 (result in words): promoted adipogenesis
[4]
  Activation COS7 (result in words), ToxPi chemicals: Inactive

## O=S(=O)(O)C(F)(F)C(F)(F)C(F)(F)C(F)(F)C(F)(F)C(F)(F)C(F)(F)C(F)(F)F [PFOS, perfluorooctanesulfonic acid]
[5]
  Adipogenesis 3T3-L1 (result in words): Negative
[1]; direct binding, ToxCast Phase I 2011 release, NA = not active, ref Knudsen et al. 2011, read-out: NVS PPARγ AC50
  AC50: 16 µM
[2]; ToxCast Phase I 2011 release, NA = not active, ref Knudsen et al. 2011, read-out: ATGT PPARγ AC50
  AC50: 26 µM
[4]; [12]
  Activation COS7 (result in words), ToxPi chemicals: Inactive

## CCCCOCN(C(=O)CCl)c1c(CC)cccc1CC [Butachlor]
[2]; [9]
  AC50: 2 µM
[2]; [10]
  AC50: 2.1 µM
[3]
  AC50: 26.4 µM

Reference: PMC4977052, “On the Utility of ToxCast™ and ToxPi as Methods for Identifying New Obesogens” (Environmental Health Perspectives, 2016)
